In patent publication US20020068346A1, “Modified inosine 5'-monophosphate dehydrogenase polypeptides and uses thereof” (priority 2000, published 2002):

Experiments:
“DKT”-IMPDH-II = biological target: T1, “DKT”-IMPDH-II (Homo sapiens, UniProt P12268, DEL111-240/K241D/Q243T); assay: Steady state enzyme kinetics: inhibition of IMPDH-DKT by XMP and MPA; assay type: biochemical; conditions: for Inhibition type: steady state kinetics
T1 construct: The full-length, human, type II impdh cDNAs were used as templates; made in house; host or cells: E. coli BL21(DE3), pET24a
T1 sequence (P12268 with tags, fused parts or gaps DEL111-240/K241D/Q243T): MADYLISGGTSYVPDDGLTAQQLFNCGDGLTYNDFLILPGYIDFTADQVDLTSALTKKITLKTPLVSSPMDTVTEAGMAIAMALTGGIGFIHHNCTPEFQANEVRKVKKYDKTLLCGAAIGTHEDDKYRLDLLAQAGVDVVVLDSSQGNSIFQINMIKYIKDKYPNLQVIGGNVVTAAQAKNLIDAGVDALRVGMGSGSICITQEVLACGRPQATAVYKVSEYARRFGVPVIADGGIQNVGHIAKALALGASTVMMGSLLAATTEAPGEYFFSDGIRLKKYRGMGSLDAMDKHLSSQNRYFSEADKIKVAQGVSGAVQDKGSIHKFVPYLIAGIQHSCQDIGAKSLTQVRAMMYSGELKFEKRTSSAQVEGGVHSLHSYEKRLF

[1] = test system: conversion of NAD to NADH in the presence of IMP; assay: Functional activity of modified IMPDH multimers: conversion of NAD to NADH measured spectrophotometrically at 340 nm; assay type: biochemical, human; conditions: partially purified protein, 0.40 mM IMP, 0.40 mM NAD, 37° C.
Procedure: Polypeptides of the modified IMPDH-DKT, -SPS, -SPT, and -AGRP were isolated and partially purified using a blue dye affinity chromatographic step. All steps were performed at 4° C. unless otherwise noted. The frozen cell pellets (e.g., described in Example 1) were thawed on ice, and resuspended in 10 mL of Buffer A (25 mM Tris, pH 8.2, 20 mM KCl, 10% glycerol (v/v), 1 mM EDTA, 5 mM DTT, and 1 μg/mL leupeptin). The cells were lysed by 2×20 second sonication pulses using a ¼″ Microtip on a Branson model 450 sonifier (set on 2.5 power setting), and excessive foaming was carefully avoided. […] The samples were evaluated for the presence of the modified IMPDH polypeptides and to approximate the purity using standard SDS-PAGE methods, with Coomassie blue staining. For each of the modified IMPDH polypeptides, it was determined that the purity of the Buffer C fractions contained approximately 75% modified IMPDH polypeptide. The total protein content was quantitated using the Bradford assay method (Bradford, M. M., 1976, Anal. Biochem., 72: 248), with Biorad protein reagent (product #500-0006) and using BSA as a protein standard.
To evaluate the functional activity of the modified IMPDH polypeptides, the conversion of NAD to NADH was measured spectrophotometrically at 340 nm, 37° C. […] The production of NADH was determined by δOD^340 (ε=6220 M^−1 cm^−1), measured for 5 min. […]

Inhibition type (“DKT”-IMPDH-II)	Ki (“DKT”-IMPDH-II; buffer D, 50 nM protein)	Compound	NADH produced [1]
Uncompetitive vs. IMP		COc1c(C)c2c(c(O)c1C/C=C(\C)CCC(=O)O)C(=O)OC2 [MPA, Mycophenolic acid]	
		wild-type IMPDH holoenzyme: wild-type human type II IMPDH holo-enzyme, SEQ ID NO:49 [reference compound]	approximately 1.00 μmoles/min mg protein
Competitive vs. IMP	67 ± 5 µM	O=c1[nH]c(=O)c2ncn([C@@H]3O[C@H](COP(=O)(O)O)[C@@H](O)[C@H]3O)c2[nH]1 [XMP, xanthosine-5′-monophosphate]	
